Assay results: patent US12636274B2, “Pharmaceutical compositions and methods for systemic treatment of solid tumors” (7 HILLS INTERESTS LLC, priority 2014, dated 2026)
Marks after values point to notes of the source that are not given here.

Legend:
[1] = target: α5β1/Fibronectin (Homo sapiens, UniProt P05556+P08648); assay: Integrin activation, adhesion α5β1/Fibronectin; assay type: cell-based; conditions: 50% serum; n = 3; read-out: Integrin Selectivity EC50 α5β1/Fibronectin
Source text: (§1) Activating all integrins is necessary for firm endothelial cell adhesion for extravasation.

[2] = test system: VCAM-1; assay: Cell migration across VCAM-1 membrane toward SDF-1; assay type: cell-based; conditions: FIG. 5; different concentrations; SDF-1 in bottom part
Procedure: Referring now to FIG. 5, an apparatus for testing VCAM-1 and ICAM-1 cell migration, where the cells are initially placed in the top part of the apparatus including a member including VCAM-1 or ICAM-1, with the bottom part of the apparatus initially including SDF-1. Cell migration is then measured from top part to the bottom part for different concentration of CDPD 1, a compound of Formula (I) of VCAM-1 and ICAM-1 impregnated membrane.

[3] = Safety margin (STD 10) and autoimmune toxicity; conditions: in vivo
[4] = test system: CT26 colon cancer syngeneic tumor; assay: Study 2: CT26 syngeneic tumor model in Balb/c mice; assay type: in vivo, Mouse (Mus musculus); conditions: for % Tumor Growth Inhibition: 1 mg/kg IP QD at 4 h; for Average Tumor Volume, Mean: 1 mg/kg IP QD
Procedure: Mouse colon carcinoma CT26 cells were obtained from American Type Culture Collection (ATCC), USA. Cells were grown in RPMI-1640 medium (Sigma, Cat # R6504) supplemented with 10% FBS (Invitrogen, Cat #10438-026), and 1% penicillin streptomycin (Thermo Fisher Scientific, Cat #15140-122). To establish allografts, 1 million CT26 cells were suspended in 50 μL of serum-free medium and mixed at 1:1 ratio with matrigel before implanting subcutaneously into the right flank of mice.
Prior to inoculation, the skin on the injection site was swabbed with alcohol. To establish allografts, CT26 cells were suspended in serum free medium at a concentration of (1×10^6)/50 μL, mixed with equal volume of matrigel (1:1 ratio) and 100 μL of this mixture was injected to each mouse by subcutaneous implantation using a 1 mL BD syringe attached to a 24 gauge needle.
CT26 tumor xenografts were measured after approximately 1 week of cell inoculation when they become palpable. When the average tumor volume reaches around 110 mm^3, animals were randomized into treatment groups group maintaining the average tumor volume of each group similar across groups for Study 1 and Study 2. In Study 3, the animals were randomized on the basis of body weights +1 day post cell implantation.
Tumor dimensions (length and breadth) were measured on days 0 (animal randomization based on tumor volume) and thrice weekly thereafter until study termination. Tumor volumes were calculated using the formula (b^2*l)*0.52 where l=length, b=breadth (Dusan Djokovic et al., BMC Cancer, 2010, 10:641). Tumor growth inhibition was calculated after normalizing the tumor volume on a given day to that on day 1.
Mean body weight loss and percent changes were calculated for each group. Similarly, mean tumor volume and percent tumor growth inhibition were calculated. The percent tumor growth inhibition (% TGI) as a function of anti-tumor efficacy were computed with respect to untreated vehicle control by comparing to the tumor volumes of day 1 using formula described below: % TGI=[1−(Treatment TVFinal−Treatment TVInitial)/(Control TVFinal−Control TVInitial)]*100
The test agent, Compound 1 was evaluated in CT26 syngeneic tumor model in Balb/c mice. Compound 1 was administered in mice when the starting tumor volume reached 110±6.9 mm^3 seven days after implantation of CT26 cells.

[5] = target: VLA-4/VCAM-1 (Homo sapiens, UniProt P05556+P13612); assay: VLA-4 (α4β1) dependent cell adhesion to VCAM-1; assay type: cell-based; conditions: FIG. 3; VCAM-1 and Cmpd 1 versus BSA, VCAM-1 alone, Ig and anti-integrin antibodies
Source text: Referring now to FIG. 3, a histogram is shown of induced VLA-4 (α4β1) dependent cell adhesion to VCAM-1 in the presence of BSA, VCAM-1, VCAM-1 and a compound of Formula (I) (Cmpd 1), Ig, anti-α4, anti-αL, anti-β1, and anti-β2.
as §1

Sequence of VLA-4/VCAM-1 (P13612 34-1032): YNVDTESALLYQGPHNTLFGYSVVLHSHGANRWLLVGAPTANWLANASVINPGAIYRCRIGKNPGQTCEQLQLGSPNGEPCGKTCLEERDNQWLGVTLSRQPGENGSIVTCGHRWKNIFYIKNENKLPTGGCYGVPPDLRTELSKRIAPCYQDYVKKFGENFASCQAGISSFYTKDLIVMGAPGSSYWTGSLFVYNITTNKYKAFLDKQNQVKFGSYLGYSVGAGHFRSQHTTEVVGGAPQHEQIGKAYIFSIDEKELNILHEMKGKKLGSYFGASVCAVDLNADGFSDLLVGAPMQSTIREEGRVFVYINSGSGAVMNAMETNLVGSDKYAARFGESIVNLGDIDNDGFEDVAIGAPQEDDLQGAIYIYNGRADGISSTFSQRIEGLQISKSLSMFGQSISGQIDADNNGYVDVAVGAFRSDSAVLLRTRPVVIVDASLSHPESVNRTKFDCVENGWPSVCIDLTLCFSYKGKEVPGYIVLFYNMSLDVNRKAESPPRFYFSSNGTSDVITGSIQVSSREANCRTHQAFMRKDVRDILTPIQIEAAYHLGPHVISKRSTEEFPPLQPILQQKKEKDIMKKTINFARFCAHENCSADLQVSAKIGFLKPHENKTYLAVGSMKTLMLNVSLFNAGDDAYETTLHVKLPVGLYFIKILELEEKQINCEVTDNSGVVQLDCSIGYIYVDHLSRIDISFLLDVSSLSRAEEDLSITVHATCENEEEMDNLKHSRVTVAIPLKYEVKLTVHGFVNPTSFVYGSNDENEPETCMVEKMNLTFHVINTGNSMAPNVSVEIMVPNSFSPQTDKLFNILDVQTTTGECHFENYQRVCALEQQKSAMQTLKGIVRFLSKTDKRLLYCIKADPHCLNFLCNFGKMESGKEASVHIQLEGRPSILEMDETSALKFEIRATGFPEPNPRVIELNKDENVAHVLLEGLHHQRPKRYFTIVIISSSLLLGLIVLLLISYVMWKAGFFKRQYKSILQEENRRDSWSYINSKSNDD
Sequence of VLA-4/VCAM-1 (P05556 21-798): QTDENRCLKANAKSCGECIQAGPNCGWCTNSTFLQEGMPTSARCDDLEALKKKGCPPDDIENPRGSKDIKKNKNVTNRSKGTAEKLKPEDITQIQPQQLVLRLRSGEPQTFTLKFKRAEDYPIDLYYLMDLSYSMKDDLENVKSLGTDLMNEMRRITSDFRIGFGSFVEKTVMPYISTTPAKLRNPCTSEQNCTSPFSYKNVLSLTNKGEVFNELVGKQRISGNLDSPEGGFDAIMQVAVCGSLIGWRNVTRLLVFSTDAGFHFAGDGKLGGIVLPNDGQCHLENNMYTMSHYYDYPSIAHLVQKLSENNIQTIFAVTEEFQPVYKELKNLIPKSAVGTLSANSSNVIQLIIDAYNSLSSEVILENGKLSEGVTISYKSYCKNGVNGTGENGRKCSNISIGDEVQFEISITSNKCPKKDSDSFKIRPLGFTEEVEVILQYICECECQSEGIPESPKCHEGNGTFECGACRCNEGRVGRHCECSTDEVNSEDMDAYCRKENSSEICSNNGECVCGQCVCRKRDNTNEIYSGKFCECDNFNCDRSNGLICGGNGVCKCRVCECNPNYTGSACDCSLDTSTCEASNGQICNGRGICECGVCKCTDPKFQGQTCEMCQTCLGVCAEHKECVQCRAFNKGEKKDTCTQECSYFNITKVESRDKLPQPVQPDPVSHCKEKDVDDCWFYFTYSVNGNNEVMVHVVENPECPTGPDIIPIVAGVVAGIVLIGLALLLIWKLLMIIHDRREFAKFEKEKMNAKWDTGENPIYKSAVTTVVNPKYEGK
Sequence of α5β1/Fibronectin (P08648 42-894 limits assumed): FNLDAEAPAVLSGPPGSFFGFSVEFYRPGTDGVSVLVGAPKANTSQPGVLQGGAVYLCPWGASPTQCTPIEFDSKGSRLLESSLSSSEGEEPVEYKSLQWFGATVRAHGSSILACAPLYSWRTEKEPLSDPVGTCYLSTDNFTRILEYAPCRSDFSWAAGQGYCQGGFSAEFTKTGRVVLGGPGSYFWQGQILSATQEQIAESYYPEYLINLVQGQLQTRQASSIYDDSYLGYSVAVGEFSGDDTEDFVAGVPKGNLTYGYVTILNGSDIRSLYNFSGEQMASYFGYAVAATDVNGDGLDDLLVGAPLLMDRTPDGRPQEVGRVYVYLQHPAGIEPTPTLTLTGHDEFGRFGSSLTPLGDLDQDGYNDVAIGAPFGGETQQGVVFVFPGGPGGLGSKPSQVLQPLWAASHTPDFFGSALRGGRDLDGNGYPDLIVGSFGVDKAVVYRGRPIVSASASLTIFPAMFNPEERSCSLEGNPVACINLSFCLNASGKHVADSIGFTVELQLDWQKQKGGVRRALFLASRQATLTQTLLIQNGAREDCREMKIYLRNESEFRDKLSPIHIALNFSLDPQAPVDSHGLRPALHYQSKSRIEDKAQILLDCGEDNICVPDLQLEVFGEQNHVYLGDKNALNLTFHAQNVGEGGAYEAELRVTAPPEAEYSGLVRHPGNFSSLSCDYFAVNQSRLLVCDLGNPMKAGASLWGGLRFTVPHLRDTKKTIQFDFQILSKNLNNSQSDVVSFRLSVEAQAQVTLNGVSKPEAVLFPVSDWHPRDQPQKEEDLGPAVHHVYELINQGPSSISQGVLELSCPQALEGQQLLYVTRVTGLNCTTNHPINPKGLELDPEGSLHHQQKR
Sequence of α5β1/Fibronectin (P08648 895-1049 limits assumed): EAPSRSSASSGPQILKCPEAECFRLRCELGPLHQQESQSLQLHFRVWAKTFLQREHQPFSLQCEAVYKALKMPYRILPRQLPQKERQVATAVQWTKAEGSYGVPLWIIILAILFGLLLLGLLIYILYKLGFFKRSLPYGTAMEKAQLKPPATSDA
Sequence of α5β1/Fibronectin (P05556 21-798): as the sequence (P05556 21-798) above

SMILES: O=C(OCCOCCOCCOC(=O)N(Cc1cccs1)Cc1cccs1)N(Cc1cccs1)Cc1cccs1 [Compound 1, 3-oxo-1-(2-thienyl)-2-(2-thienylmethyl)-4,7,10-trioxa-2-azadodecan-12-yl bis(2-thienylmethyl)carbamate]
- EC50 [1]: 7.7 ± 2.3 µM
- cell migration, VCAM-1 [2]: migration enhancement
- autoimmune toxicity [3]: no autoimmune toxicity
- safety margin (STD 10) [3]: > 300 times therapeutic exposure
- % Tumor Growth Inhibition ([4]; Day 2): −6.6%
- % Tumor Growth Inhibition ([4]; Day 4): 33.0%
- % Tumor Growth Inhibition ([4]; Day 6): 38.9%
- % Tumor Growth Inhibition ([4]; Day 8): 31.6%
- % Tumor Growth Inhibition ([4]; Day 10): 33.5%
- % Tumor Growth Inhibition ([4]; Day 13): 46.0%
- Average Tumor Volume, Mean ([4]; Day 1): 111 mm^3
- Average Tumor Volume, Mean ([4]; Day 2): 171 mm^3
- Average Tumor Volume, Mean ([4]; Day 4): 244 mm^3
- Average Tumor Volume, Mean ([4]; Day 6): 343 mm^3
- Average Tumor Volume, Mean ([4]; Day 8): 545 mm^3
- Average Tumor Volume, Mean ([4]; Day 10): 744* mm^3
- Average Tumor Volume, Mean ([4]; Day 13): 1038^‡ mm^3
- bound cells, adhesion to VCAM-1 [5]: highest bound cells
